The numbers were not newly measured in US5718912A, “Muscarine agonists” (Merck & Co., Inc., priority 1996, dated 1998), which cites them from elsewhere.

This data set has as its system intraocular pressure.

“Also recorded” adds a separate entry of the source.

With `CC[C@@H]1C(=O)OC[C@@H]1Cc1cncn1C` [pilocarpine], the side effects entry (pilocarpine therapy) is given as “miosis (decrease of pupil size); also recorded: systemic CNS effects”. Further, the “effect on intraocular pressure” value (topical administration) is “lowers intraocular pressure by increasing outflow”.
